Columns and labels:
panel of 442 kinases [1] = target: T1, panel of 442 kinases (Homo sapiens, UniProt Q8IYT8); assay type: binding; details: kinase ULK2; compound concentration 10 µM
T1 construct: purchased KINOMEscan
T1 sequence (Q8IYT8 1-1036): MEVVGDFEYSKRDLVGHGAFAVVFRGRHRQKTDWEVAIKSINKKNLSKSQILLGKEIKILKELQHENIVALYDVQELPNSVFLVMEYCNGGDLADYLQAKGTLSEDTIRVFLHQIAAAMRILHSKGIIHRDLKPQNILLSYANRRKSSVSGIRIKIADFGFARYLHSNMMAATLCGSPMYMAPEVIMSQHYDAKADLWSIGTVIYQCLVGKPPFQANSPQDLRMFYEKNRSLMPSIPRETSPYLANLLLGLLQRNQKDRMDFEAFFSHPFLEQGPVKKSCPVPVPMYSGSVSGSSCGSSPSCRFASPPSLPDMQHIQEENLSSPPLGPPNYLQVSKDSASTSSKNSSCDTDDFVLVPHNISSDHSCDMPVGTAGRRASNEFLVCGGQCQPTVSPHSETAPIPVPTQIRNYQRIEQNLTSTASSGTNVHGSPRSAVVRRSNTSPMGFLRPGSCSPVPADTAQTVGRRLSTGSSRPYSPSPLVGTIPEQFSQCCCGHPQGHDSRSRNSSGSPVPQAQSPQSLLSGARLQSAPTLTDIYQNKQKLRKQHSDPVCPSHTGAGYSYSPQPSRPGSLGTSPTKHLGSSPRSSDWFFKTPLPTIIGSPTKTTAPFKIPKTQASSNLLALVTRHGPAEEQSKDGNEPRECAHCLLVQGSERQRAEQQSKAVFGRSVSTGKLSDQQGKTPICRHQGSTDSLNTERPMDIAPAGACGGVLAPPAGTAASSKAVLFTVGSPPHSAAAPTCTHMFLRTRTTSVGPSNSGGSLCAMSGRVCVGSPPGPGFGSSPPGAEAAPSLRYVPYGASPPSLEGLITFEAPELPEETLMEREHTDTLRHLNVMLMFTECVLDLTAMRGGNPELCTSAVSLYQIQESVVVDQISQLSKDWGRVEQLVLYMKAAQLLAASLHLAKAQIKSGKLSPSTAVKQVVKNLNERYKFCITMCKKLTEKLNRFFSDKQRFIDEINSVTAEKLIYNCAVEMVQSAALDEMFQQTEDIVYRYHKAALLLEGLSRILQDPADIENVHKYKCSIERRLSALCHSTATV
From the text: (§1) We assessed the selectivity of members of this scaffold using the KINOMEscan methodology across a near comprehensive panel of 442 kinases [[18,27]].

panel of 442 kinases [2] = target: T2, panel of 442 kinases (Homo sapiens, UniProt Q8WTQ7); assay type: binding; details: Compound Concentration 10 µM
T2 construct: purchased KINOMEscan
T2 sequence (Q8WTQ7 1-553): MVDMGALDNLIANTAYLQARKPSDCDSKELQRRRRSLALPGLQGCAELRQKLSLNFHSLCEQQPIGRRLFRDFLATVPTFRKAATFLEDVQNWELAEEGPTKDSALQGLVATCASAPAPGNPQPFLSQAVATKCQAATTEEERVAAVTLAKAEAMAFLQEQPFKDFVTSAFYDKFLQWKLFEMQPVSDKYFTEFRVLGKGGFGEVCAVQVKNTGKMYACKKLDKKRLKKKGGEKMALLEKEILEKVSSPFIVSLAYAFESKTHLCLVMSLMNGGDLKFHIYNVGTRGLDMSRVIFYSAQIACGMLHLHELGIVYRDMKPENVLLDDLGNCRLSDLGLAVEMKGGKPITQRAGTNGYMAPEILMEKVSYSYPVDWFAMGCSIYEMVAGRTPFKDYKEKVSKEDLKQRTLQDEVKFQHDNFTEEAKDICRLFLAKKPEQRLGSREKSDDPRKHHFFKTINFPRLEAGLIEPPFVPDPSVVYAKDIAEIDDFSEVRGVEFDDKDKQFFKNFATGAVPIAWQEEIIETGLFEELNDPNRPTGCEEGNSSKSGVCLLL
From the text: as §1

| SMILES | % Ctrl, ULK2 (panel of 442 kinases [1]) [% Ctrl] | KINOMEscan: GRK7 (panel of 442 kinases [2]) |
| --- | --- | --- |
| COc1cc(C(=O)N2CCC(N3CCN(C)CC3)CC2)ccc1Nc1ncc2c(n1)N1CCc3cccc(c31)C(=O)N2C [Compound 24] | 96 | – |
| CCOc1cc(C(=O)N2CCC(N3CCN(C)CC3)CC2)ccc1Nc1ncc2c(n1)N(C1CCCC1)c1ccccc1C(=O)N2C [Compound 26] | 98 | 100 |
| COc1cc(C(=O)N2CCC(N3CCN(C)CC3)CC2)ccc1Nc1ncc2c(n1)N(C1CCCC1)c1ccccc1C(=O)N2C [Compound 25, 11-cyclopentyl-2-((2-methoxy-4-(4-(4-methylpiperazin-1-yl)piperidine-1-carbonyl)phenyl)amino)-5-methyl-5H-benzo[e]pyrimido[5,4-b][1,4]diazepin-6(11H)-one] | 75 | 94 |
| COc1cc(C(=O)N2CCC(N3CCN(C)CC3)CC2)ccc1Nc1ncc2c(n1)N(C)c1ccccc1C(=O)N2C [15 (LRRK2-IN-1)] | 67 | 100 |

— publication PMC3914206
